Source: ChEMBL document CHEMBL4004888, “New derivatives of quinoline-4-carboxylic acid with antiplasmodial activity” (Bioorg Med Chem, 2017)

Legend:
[1] = Selectivity index, ratio of IC50 for rat L6 cells to IC50 for erythrocytic stage of chloroquine-sensitive Plasmodium falciparum NF54; assay type: toxicity; conditions: read-out: Ratio IC50
Plasmodium falciparum [2] = experiment: Antiplasmodial activity against erythrocytic stage of chloroquine-sensitive Plasmodium falciparum NF54 assessed as reduction in [3H]hypoxanthine incorporation after 48 hrs by liquid scintillation counting method; assay type: functional
L6 = experiment: Cytotoxicity against rat L6 cells after 70 hrs by alamar blue staining based fluorometric assay; assay type: cell-based; conditions: L6, 70 h
Plasmodium berghei [3] = experiment: Antiplasmodial activity against erythrocytic stage of GFP-fused Plasmodium berghei ANKA infected in NMRI mouse assessed as reduction in parasitaemia at 50 mg/kg, ip for 4 days measured at 24 hrs post last dose by FACS analysis relative to control; assay type: functional; design: scale not given: the % may be the effect or the level left
[4] = Selectivity index, ratio of IC50 for rat L6 cells to IC50 for erythrocytic stage of chloroquine/pyrimethamine-resistant Plasmodium falciparum K1; assay type: toxicity; conditions: L6 cells versus erythrocytic stage Plasmodium falciparum K1, read-out: Ratio IC50
Plasmodium falciparum [5] = experiment: Antiplasmodial activity against erythrocytic stage of chloroquine/pyrimethamine-resistant Plasmodium falciparum K1 assessed as reduction in [3H]hypoxanthine incorporation after 48 hrs by liquid scintillation counting method; assay type: functional
Plasmodium berghei [6] = experiment: Antiplasmodial activity against erythrocytic stage of GFP-fused Plasmodium berghei ANKA infected in NMRI mouse assessed as mouse survival days at 50 mg/kg, ip for 4 days measured up to 30 days post infection (reference value: 4 day); assay type: functional
Plasmodium berghei [7] = experiment: Antiplasmodial activity against erythrocytic stage of GFP-fused Plasmodium berghei ANKA infected in NMRI mouse assessed as mouse survival days at 10 mg/kg, ip for 4 days measured up to 30 days post infection (reference value: 4 day); assay type: functional

Row | IC50 (Plasmodium falciparum [2]) | SMILES | selectivity ratio [1] | IC50 (L6; read-out: IC50) | Activity (Plasmodium berghei [3]) | selectivity ratio [4] | IC50 (Plasmodium falciparum [5]) | MSD (Plasmodium berghei [6]) | MSD (Plasmodium berghei [7]) | IC50 (L6)
1 | 2.19 µM | Fc1ccc2nc(-c3ccc(CN4CCOCC4)cc3)cc(CN3CCNCC3)c2c1 | 6.62 | 14.5 µM | – | – | – | – | – | –
2 | 13.8 µM | CC(C)(C)OC(=O)N1CCN(C(=O)c2cc(-c3ccc(CN4CCOCC4)cc3)nc3ccc(F)cc23)CC1 | 2.14 | 29.6 µM | – | – | – | – | – | –
3 | 0.21 µM | O=C(Nc1ccc([N+](=O)[O-])cc1)c1cc(-c2ccc(CN3CCOCC3)cc2)nc2ccc(F)cc12 | 65.7 | 13.8 µM | – | – | – | – | – | –
4 | – | C[C@@H]1CC[C@H]2[C@@H](C)C(=O)O[C@@H]3O[C@@]4(C)CC[C@@H]1[C@]32OO4 [ARTEMISININ] | – | – | – | 70300 | 0.0064 µM | – | – | –
5 | 6.73 µM | O=C(c1cc(-c2ccc(CN3CCOCC3)cc2)nc2ccc(F)cc12)N1CCN(C(=O)c2cc(-c3ccc(CN4CCOCC4)cc3)nc3ccc(F)cc23)CC1 | 19 | 128 µM | – | – | – | – | – | –
6 | 0.53 µM | O=C(NCCN1CCNCC1)c1cc(-c2ccc(CN3CCOCC3)cc2)nc2ccc(F)cc12 | 103 | 54.5 µM | – | – | – | – | – | –
7 | 12.5 µM | CCN(CC)C(=O)c1cc(-c2ccc(CN3CCOCC3)cc2)nc2ccc(F)cc12 | 9.68 | 121 µM | – | – | – | – | – | –
8 | 1.76 µM | O=C(Nc1ccccc1)c1cc(-c2ccc(CN3CCOCC3)cc2)nc2ccc(F)cc12 | 10.1 | 17.7 µM | – | – | – | – | – | –
9 | 1.98 µM | CN1CCN(Cc2cc(-c3ccc(CN4CCOCC4)cc3)nc3ccc(F)cc23)CC1 | 8.94 | 17.7 µM | – | – | – | – | – | –
10 | 13.3 µM | Fc1ccc2nc(-c3ccc(CN4CCOCC4)cc3)cc(CN3CCN(c4ccccc4)CC3)c2c1 | 2.4 | 31.9 µM | – | – | – | – | – | –
11 | 7.78 µM | O=C(c1cc(-c2ccc(CN3CCOCC3)cc2)nc2ccc(F)cc12)N1CCNCC1 | 13.5 | 105 µM | – | – | – | – | – | –
12 | – | CCN(CC)CCCC(C)Nc1ccnc2cc(Cl)ccc12 (stereo unspecified) [CHLOROQUINE] | – | – | – | – | – | – | 20 days | –
13 | 4.92 µM | O=C(c1cc(-c2ccc(CN3CCOCC3)cc2)nc2ccc(F)cc12)N1CCN(c2ccccc2)CC1 | 5 | 24.6 µM | – | – | – | – | – | –
14 | – | COc1cc([C@@H]2c3cc4c(cc3[C@H](O)[C@H]3COC(=O)[C@H]23)OCO4)cc(OC)c1OC [PODOFILOX] | – | – | – | – | – | – | – | 0.012 µM
15 | 1.09 µM | CN(C)c1ccc(NC(=O)c2cc(-c3ccc(CN4CCOCC4)cc3)nc3ccc(F)cc23)cc1 | 11.4 | 12.4 µM | – | – | – | – | – | –
16 | 5.08 µM | CN1CCN(C(=O)c2cc(-c3ccc(CN4CCOCC4)cc3)nc3ccc(F)cc23)CC1 | 26.6 | 135 µM | – | – | – | – | – | –
17 | 49.3 µM | N=C(N)N1CCN(C(=O)c2cc(-c3ccc(CN4CCOCC4)cc3)nc3ccc(F)cc23)CC1 | 4.26 | 210 µM | – | – | – | – | – | –
18 | 1.09 µM | CN1CCN(CCNC(=O)c2cc(-c3ccc(CN4CCOCC4)cc3)nc3ccc(F)cc23)CC1 | 75.2 | 82 µM | – | – | – | – | – | –
19 | 0.59 µM | COc1ccc(NC(=O)c2cc(-c3ccc(CN4CCOCC4)cc3)nc3ccc(F)cc23)cc1 | 11.5 | 6.77 µM | – | – | – | – | – | –

Row | SMILES | IC50 (Plasmodium falciparum [2]) | selectivity ratio [1] | IC50 (L6; read-out: IC50) | Activity (Plasmodium berghei [3]) | selectivity ratio [4] | IC50 (Plasmodium falciparum [5]) | MSD (Plasmodium berghei [6]) | MSD (Plasmodium berghei [7]) | IC50 (L6)
20 | CC(C)(C)OC(=O)N1CCN(CCNC(=O)c2cc(-c3ccc(CN4CCOCC4)cc3)nc3ccc(F)cc23)CC1 | 0.00021 µM | 64300 | 13.5 µM | 98.1% | 15500 | 0.00087 µM | 8.3 days | – | –
21 | O=C(NCCN1CCCC1)c1cc(-c2ccc(CN3CCOCC3)cc2)nc2ccc(F)cc12 [CABAMIQUINE] | 0.00013 µM | 219000 | 28.5 µM | – | 129000 | 0.00022 µM | – | – | –
22 | O=C(NCCN1CCN(c2ccccc2)CC1)c1cc(-c2ccc(CN3CCOCC3)cc2)nc2ccc(F)cc12 | 0.01 µM | 394 | 3.94 µM | 17.1% | 563 | 0.007 µM | 4 days | – | –
